Measurements: patent publication US20230324373A1, “PYRUVIC ACID OPTICAL PROBE, PREPARATION METHOD THEREFOR, AND APPLICATION THEREOF” (East China University of Science and Technology, priority 2020, published 2023)

Columns and labels:
[1] = titration curve of pyruvate optical sensor (concentration gradient pyruvate detection); assay type: binding; conditions: for change of the ratio of fluorescence intensity at 528 nm after excitation at 420 nm and at 485 nm: pyruvate concentration gradient; for Kd: ratio of fluorescence at 528 nm, excitation 420 nm and 485 nm, read-out: Kd (binding constant)
Protocol: 6. Take 100 μl of 1 μM protein solution, incubate at 37° C. for 5 minutes, add pyruvate for titration, and measure the fluorescence intensity of the protein emitted at 528 nm after fluorescence excitation at 485 nm. The fluorescence excitation and emission measurement of the samples were completed by a multifunctional fluorescence microplate reader.

[2] = specificity of purified pyruvate optical sensors; assay type: biochemical; conditions: purified sensor
[3] = fluorescence spectra of purified sensor treated with 0 mM and 10 mM pyruvate; assay type: biochemical; conditions: 10 minutes
Protocol: 7. Take 100 μl of 1 μM protein solution, incubate at 37° C. for 5 minutes, add pyruvate, and measure the absorption and fluorescence spectra of the protein. The determination of the absorption spectrum and fluorescence spectrum of the sample is completed by a spectrophotometer and a fluorescence spectrophotometer.
Exemplarily, after the purified pyruvate optical sensor PdhR(96-254)-192/194-M194V-cpYFP was treated with 0 mM and 10 mM pyruvate for 10 minutes, respectively, the fluorescence spectrum was detected using a fluorescence spectrophotometer.
Determination of excitation spectra: Excitation spectra were recorded with an excitation range of 350 nm to 500 nm and an emission wavelength of 530 nm, with readings every 5 nm.
Determination of emission spectra: excitation spectra were recorded with an fixed excitation wavelength of 420 nm and 490 nm and an emission range of 505-600 nm, read every 5 nm.

Substance	Kd [1]	change of the ratio of fluorescence intensity at 528 nm after excitation at 420 nm and at 485 nm [1]	specificity [2]	fluorescence intensity excited at 420 nm relative to 0 mM pyruvate [3]	fluorescence intensity excited at 490 nm relative to 0 mM pyruvate [3]
141/143-S190T/R191Q/R192E: cpYFP at 141/143 of PdhR(96-254), mutations S190T/R191Q/R192E	186 µM	2.7 times			
141/143-R191S/R192T: cpYFP at 141/143 of PdhR(96-254), mutations R191S/R192T	164 µM	3.9 times			
192/194-M194V-S190E/R191N/R192D: cpYFP at 192/194 of PdhR(96-254), mutations M194V/S190E/R191N/R192D	1070 µM	13.1 times	good specificity		
141/143-S 190L/R191V: cpYFP at 141/143 of PdhR(96-254), mutations S190L/R191V	185 µM	4.2 times			
192/194-M194V: cpYFP at 192/194 of PdhR(96-254), mutation M194V (family SEQ ID NO: 22; coding sequence SEQ ID NO: 31)	475 µM	9.7 times	good specificity	0.6 times	5.8 times
PdhR(96-254)-192/194-M194V/S190D/R191Y/R192T-cpYFP: cpYFP at 192/194 of PdhR(96-254), mutations M194V/S190D/R191Y/R192T			good specificity		
192/195: optical sensor with cpYFP inserted at site 192/195 of PdhR(96-254)	19900 µM	8.3 times			

Now from value to substance, other results behind:

Kd [1]	Substance	change of the ratio of fluorescence intensity at 528 nm after excitation at 420 nm and at 485 nm [1]	specificity [2]	fluorescence intensity excited at 420 nm relative to 0 mM pyruvate [3]	fluorescence intensity excited at 490 nm relative to 0 mM pyruvate [3]
28 µM	141/143: optical sensor with cpYFP inserted at site 141/143 of PdhR(96-254)	2.0 times	good specificity		
158 µM	141/143-S190R/R191S/R192P: cpYFP at 141/143 of PdhR(96-254), mutations S190R/R191S/R192P	3.1 times			
84 µM	141/143-S190P/R191H/R192P: cpYFP at 141/143 of PdhR(96-254), mutations S190P/R191H/R192P	3.2 times			
